In ChEMBL document CHEMBL5523667, “Blood-stage antimalarial activity, favourable metabolic stability and in vivo toxicity of novel piperazine linked 7-chloroquinoline-triazole conjugates” (Eur J Med Chem, 2024):

Legend:
Plasmodium falciparum = assay: Resistance index, ratio of IC50 for antimalarial activity against chloroquine-resistant Plasmodium falciparum K1 to IC50 for antimalarial activity against chloroquine-sensitive Plasmodium falciparum NF54; format: functional
[1] = Metabolic stability in human liver S9 fraction assessed as intrinsic clearance at 2 uM measured 90 mins by LC-MS/MS analysis; format: ADME, subcellular; settings: read-out: CLH
[2] = Toxicity in mouse assessed as grooming time at 100 mg/kg by open field test (reference value: 10.91 +/- 2.01 sec); format: organism-based; settings: in vivo, 2 s

## O=C(Cn1cc(CN2CCN(c3ccnc4cc(Cl)ccc34)CC2)nn1)Nc1cccc([N+](=O)[O-])c1
Plasmodium falciparum
  Ratio IC50: 1.95
[1]
  microsomal CLint at 2 µM: 13.5 µL/min/mg
[2]
  Time: 12.04 s
